The structures appear in SMILES notation. Where a name gives a salt, the structure may show the parent alone.

A short description of this data set: Thermal analysis: thermogravimetry (TG) and differential thermal analysis (DSC). The format is physicochemical. Particulars: under air flow; for thermal stability of the solids (thermal analysis): temperature increased at 10° C./minute. The protocol:
The obtained solids were subjected to thermogravimetry (TG) and differential thermal analysis (DSC) using Thermo plus EVO TG8120 manufactured by Rigaku Corporation. The temperature was increased under air flow at a rate of 10° C./minute.

Take `O=C(O)c1cc(C(=O)O)c2c(n1)C(=O)C(=O)c1cc(C(=O)O)[nH]c1-2` [Comparative Example 1, PQQ disodium salt]: the “temperature from which reduction in the weight was observed” value (10° C./minute) is “about 30 °C”. Also, the “thermal stability of the solids (thermal analysis)” value (“thermal stability of the solids” below) (disodium salt) was “unstable”. Turning to `O=C(O)c1cc(C(=O)O)c2c(n1)C(=O)C(=O)c1cc(C(=O)O)[nH]c1-2` [Comparative Example 2, PQQ disodium salt], the “thermal stability of the solids” value (disodium salt) is listed as “low thermal stability”. Consider `O=C(O)c1cc(C(=O)O)c2c(n1)C(=O)C(=O)c1cc(C(=O)O)[nH]c1-2` [Example 2, pyrroloquinoline quinone disodium salt], for which the “temperature up to which there was no change (except evaporation of water at about 100° C.)” value (10° C./minute) was found to be 270 °C. Moreover, the “thermal stability of the solids” value (disodium salt) was “very stable”. `O=C(O)c1cc(C(=O)O)c2c(n1)C(=O)C(=O)c1cc(C(=O)O)[nH]c1-2` [Example 4, pyrroloquinoline quinone trisodium salt]: the “thermal stability of the solids” value (trisodium salt) is on record as “very high thermal stability”.

Values taken from patent US9321770B2, “Crystals of pyrroloquinolinequinone sodium salts” (MITSUBISHI GAS CHEMICAL COMPANY, INC., priority 2009, dated 2016).
